Laboratory results as given in article PMC10648349, “Aromatic Diboronic Acids as Effective KPC/AmpC Inhibitors” (Molecules, 2023).
≈ marks a conversion by molar mass, not a printed value. One block for each compound: values may come before it.

Legend:
C. tropicalis ATCC 750 = assay: antifungal activity (disc-diffusion, MIC, MFC); type: cell-based; conditions: Candida tropicalis, ATCC750
In short: (§1)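 Diboronic acids (DMSO solutions) at 0.4 mg per disc were used for diffusion testing. Dilution endpoints were MIC, MBC and MFC, per CLSI and EUCAST recommendations.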

C. tropicalis IBA 171 = assay: antifungal activity (disc-diffusion, MIC, MFC); type: cell-based; conditions: Candida tropicalis, IBA171
In short: as §1

C. albicans ATCC 90028 = assay: antifungal activity (disc-diffusion, MIC, MFC); type: cell-based; conditions: Candida albicans, ATCC90028
In short: as §1

S. cerevisiae ATCC 9763 = assay: antifungal activity (disc-diffusion, MIC, MFC); type: cell-based; conditions: Saccharomyces cerevisiae, ATCC9763
In short: as §1

B. subtilis ATCC 6633 = assay: direct antimicrobial activity (disc-diffusion); type: cell-based; conditions: Bacillus subtilis, ATCC6633; 0.4 mg per disc, 9 mm disc (linezolid 0.03 mg, 6 mm disc); - no zone; read-out: Diameter of inhibition zone
Protocol: (§2) Direct antimicrobial activity against Gram-negative and Gram-positive bacterial strains, as well as against yeast, was examined as previously described by the disc-diffusion test, the MIC determination assay, the MBC (for bacteria), and the MFC (for yeasts) determination tests. All the above-mentioned tests were performed according to EUCAST [71, 72] and CLSI [73, 74, 75, 76, 77] recommendations. The following reference agents were used: nitrofurantoin (for Gram-negative rods), linezolid (for Gram-positive bacteria), and fluconazole (in the case of fungi). The new aromatic diboronic acids were dissolved in DMSO (Sigma, St. Louis, MO, USA). In the disc-diffusion test, the concentration of new agents was 0.4 mg per disc.

[1] = test system: C. guilliermondii IBA 155; assay: antifungal activity (disc-diffusion, MIC, MFC); type: cell-based, Candida guilliermondii; conditions: Meyerozyma guilliermondii, IBA155
In short: as §1

[2] = test system: P. aeruginosa MUW 700 AmpC(+); assay: screening test of direct antimicrobial activity (STDA), disc-diffusion; type: cell-based; conditions: Pseudomonas aeruginosa; 0.3 mg per disc; - no zone; read-out: Diameter of inhibition zone around disc with tested agent
Protocol: (§3) Prior to combination disc tests, screening tests of direct antimicrobial activity (STDA) of the tested agent against β-lactamase-producing strains were performed by the disc-diffusion method. Discs with 0.3 mg, 0.1 mg, and 0.03 mg of each agent were examined. The highest amount of an agent that caused no effect on bacterial growth was used in further experiments.

[3] = test system: K. pneumoniae ATCC 700603 ESBL(+); assay: as above; type: cell-based; conditions: Klebsiella pneumoniae, ATCC700603; 0.3 mg per disc; - no zone; read-out: Diameter of inhibition zone around disc with tested agent
Protocol: as §3

[4] = test system: C. parapsilosis ATCC 22019; assay: antifungal activity (disc-diffusion, MIC, MFC); type: cell-based, Candida parapsilosis; conditions: Lodderomyces parapsilosis, ATCC22019
In short: as §1

[5] = MTT-based viability assay; type: cell-based; conditions: human, MRC-5 human fibroblasts, 72 h, read-out: Viability of MRC-5 cells (% of viable cells ± SD)
In short: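 MRC-5 human fibroblasts grown in MEME with 10% FBS at 37 °C, 5% CO2, tested by MTT with absorbance read at 570 nm. Viability given as percent of untreated control cells, in triplicate.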

[6] = test system: Gram-negative rods (except P. aeruginosa); assay: direct antimicrobial activity, MIC; type: cell-based
Protocol: as §2

S. aureus ATCC 6538P = assay: direct antimicrobial activity (disc-diffusion, MIC, MBC); type: cell-based; conditions: Staphylococcus aureus, ATCC6538P
In short: as §1

[7] = test system: S. epidermidis ATCC 12228; assay: as above; type: cell-based; conditions: Staphylococcus epidermidis, ATCC12228
In short: as §1

E. faecium ATCC 6057 = assay: as above; type: cell-based; conditions: Enterococcus faecium, ATCC6057
In short: as §1

[8] = test system: S. aureus ATCC 43300 MRSA; assay: as above; type: cell-based; conditions: Staphylococcus aureus
In short: as §1

E. faecalis ATCC 29212 = assay: as above; type: cell-based; conditions: Enterococcus faecalis, ATCC29212
In short: as §1

Gram-positive strains = assay: direct antimicrobial activity, MIC; type: cell-based
Protocol: as §2, with “disc. Depending on the solubility, the MIC and MBC/MFC values were determined up to 100 mg/L for 1k, up to 200 mg/L for 7c, and up to 400 mg/L for the remaining compounds: 1a–1j, 2a–2g, 3a–3f, 4a–4b, 5a–5c, 6a and 7a–7b.” for “disc.”

C. krusei ATCC 6258 = assay: antifungal activity (disc-diffusion, MIC, MFC); type: cell-based, Candida krusei; conditions: Pichia kudriavzevii, ATCC6258
In short: as §1

[9] = test system: P. aeruginosa 1204 VIM(+); assay: checkerboard microdilution, antibiotic plus tested agent; type: cell-based; conditions: Pseudomonas aeruginosa; read-out: MIC of meropenem alone
Protocol: (§4) To examine the ability of tested agents to inhibit various carbapenemases and AmpC-enzymes, their synergy with antibiotics against β-lactamase-producing strains was assessed by checkerboard microdilution assay, with slight modification. Checkerboards were prepared in microtiter plates, with seven two-fold dilutions of β-lactams (1–64 mg/L) in the rows and three two-fold dilutions of tested agents and PBA (4–16 mg/L) in the columns. Tested agents’ concentrations were limited to the concentrations at which the newest commercially available BLIs (vaborbactam, relebactam, and avibactam) are used in susceptibility testing. Plates were inoculated and incubated as in the MIC microdilution assay. Parallel, MICs of tested agents and PBA alone were determined by the microdilution assay. Following the incubation, antibiotic MICs in the presence of each agent’s concentration were determined. Moreover, for the first well without growth found in each checkerboard row and column along the growth/non-growth interface, the fractional inhibitory concentration index (FICI) was calculated using the formula below:FICI = [(MIC of antibiotic in combination)/(MIC of antibiotic alone)] + [(MIC of the tested agent in combination)/(MIC of tested agent alone)].
For calculations, all off-scale MICs were converted to the next-highest doubling concentration. […]

[10] = test system: K. pneumoniae ATCC BAA 1705 KPC-2-positive; assay: combination disc test CDT-KPC; type: cell-based; conditions: Klebsiella pneumoniae, BAA1705; meropenem 10 µg per disc, 6 mm disc; read-out: Diameter of inhibition zone, MEM-10 disc without agent
[11] = test system: E. coli 82 TR(pl 81), transformant carrying blaKPC-3; assay: whole cell assay, meropenem MIC with tested agent; type: cell-based, Escherichia coli; conditions: Escherichia coli, read-out: MIC of meropenem alone
Protocol: as §4

E. coli DH5α = assay: whole cell assay, meropenem MIC with tested agent; type: cell-based, Escherichia coli; conditions: Escherichia coli; read-out: MIC of meropenem alone
Protocol: as §4

[12] = test system: K. pneumoniae ATCC BAA-1705 KPC-2-positive; assay: checkerboard microdilution, antibiotic plus tested agent; type: cell-based, Klebsiella pneumoniae; conditions: Klebsiella pneumoniae, ATCCBAA1705; read-out: MIC of meropenem alone
Protocol: as §4
(§5) For calculations, all off-scale MICs were converted to the next-highest doubling concentration. Subsequently, both the average and the lowest FICI were interpreted. The interpretation was as follows: FICI ≤ 0.5, synergy; 0.5 < FICI ≤ 4, indifference and FICI > 4, antagonism. Primarily, examined combinations consisted of meropenem (Pol-Aura, Morag, Poland) plus tested agents against carbapenemases-producing strains and ceftazidime (Pol-Aura, Morag, Poland) plus tested agents against AmpC-producing strains. For agents that reduced meropenem MIC at least 4-fold for at least two tested strains, similar assays were performed with imipenem (Pol-Aura, Morag, Poland) and ertapenem (Pol-Aura, Morag, Poland).

[13] = test system: K. pneumoniae 83 KPC-3-positive, CTX-M-3-positive; assay: as above; type: cell-based, Klebsiella pneumoniae; conditions: Klebsiella pneumoniae; read-out: MIC of meropenem alone
Protocol: as §4, §5

[14] = test system: K. pneumoniae 81 KPC-3-positive; assay: as above; type: cell-based, Klebsiella pneumoniae; conditions: Klebsiella pneumoniae; read-out: MIC of meropenem alone
Protocol: as §4, §5

[15] = test system: E. coli 76 KPC-2-positive; assay: as above; type: cell-based, Escherichia coli; conditions: Escherichia coli; read-out: MIC of meropenem alone
Protocol: as §4, §5

CRE strains = conditions: cited from earlier work
[16] = 0.4 mg per disc, 9 mm disc (fluconazole 0.025 mg, 6 mm disc), - no zone, read-out: Diameter of inhibition zone
[17] = 0.4 mg per disc, 9 mm disc (linezolid 0.03 mg, 6 mm disc), - no zone, read-out: Diameter of inhibition zone

MIC (C. tropicalis ATCC 750; fluconazole by Etest): > 400 µg/mL
MIC (C. tropicalis IBA 171; fluconazole by Etest): > 400 µg/mL
MIC (C. albicans ATCC 90028; fluconazole by Etest): 200 µg/mL (≈ 479 µM)
MIC (S. cerevisiae ATCC 9763; fluconazole by Etest): > 400 µg/mL
MIC ([1]; fluconazole by Etest): 400 µg/mL (≈ 958 µM)
MIC ([4]; fluconazole by Etest): > 400 µg/mL
MIC [6]: 50 to 400 µg/mL (≈ 120 to 958 µM)
MIC (S. aureus ATCC 6538P): 50 µg/mL (≈ 120 µM)
MIC [7]: 50 µg/mL (≈ 120 µM)
MIC (E. faecium ATCC 6057): 400 µg/mL (≈ 958 µM)
MIC [8]: 50 µg/mL (≈ 120 µM)
MIC (E. faecalis ATCC 29212): 400 µg/mL (≈ 958 µM)
MIC (Gram-positive strains; enterococci): 100 to 400 µg/mL (≈ 239 to 958 µM)
MIC (Gram-positive strains; staphylococci): 12.5 to 50 µg/mL (≈ 29.9 to 120 µM)
MIC (C. krusei ATCC 6258; fluconazole by Etest): 400 µg/mL (≈ 958 µM)
Compound: OB(O)c1cc(I)c(B(O)O)cc1I [1j]
zone of inhibition at 0.4 mg/disc (C. tropicalis ATCC 750; [16]): 17 mm
zone of inhibition at 0.4 mg/disc (C. tropicalis IBA 171; [16]): 15 mm
zone of inhibition at 0.4 mg/disc (C. albicans ATCC 90028; [16]): 24 mm
zone of inhibition at 0.4 mg/disc (S. cerevisiae ATCC 9763; [16]): 20 mm
zone of inhibition at 0.4 mg/disc (B. subtilis ATCC 6633): 20 mm
zone of inhibition at 0.4 mg/disc [1, 16]: 30 mm
zone of inhibition at 300 µg/disc [2]: 14 mm
zone of inhibition at 300 µg/disc [3]: 11 mm
zone of inhibition at 0.4 mg/disc [4, 16]: 15 mm
viability at 72 h, 12.5 mg/L ([5]; 12.5 mg/L): 125 ± 2.8%
viability at 72 h, 25 mg/L ([5]; 25 mg/L): 117 ± 1.2%
viability at 72 h, 50 mg/L ([5]; 50 mg/L): 88.6 ± 3.5%
zone of inhibition at 0.4 mg/disc (S. aureus ATCC 6538P; [17]): 19 mm
zone of inhibition at 0.4 mg/disc [7, 17]: 25 mm
zone of inhibition at 0.4 mg/disc [8, 17]: 21 mm
zone of inhibition at 0.4 mg/disc (C. krusei ATCC 6258; [16]): 23 mm

Compound: C[C@@H](O)[C@H]1C(=O)N2C(C(=O)O)=C(S[C@@H]3CN[C@H](C(=O)N(C)C)C3)[C@H](C)[C@H]12 [MEM, meropenem, reference compound]
MIC [9]: 64 µg/mL
zone of inhibition at 10 µg/disc [10]: 6 mm
MIC [11]: 2 µg/mL
MIC (E. coli DH5α): 0.016 µg/mL
MIC [12]: 32 µg/mL
MIC [13]: 32 µg/mL
MIC [14]: 16 µg/mL
MIC [15]: 64 µg/mL

Compound: O=C(O)c1c(F)ccc2c1OB(O)[C@@H]1C[C@H]21 [xeruborbactam]
MIC (CRE strains): 16 µg/mL (≈ 72.1 µM)
